“And” between values parts separate entries of the source, which are not always exact repeats. Identical values can stand only once. Like-named read-outs stand apart in the source and are kept apart here.

The target of assay [1] is histamine receptor H1 (Homo sapiens, UniProt P35367). Kind of assay: Histamine H1 radioligand binding ([3H]Pyrilamine). To be noted: for inhibition at 1 µM: read-out: Histamine Binding (1 μM) H1, percent inhibition of specific binding, 1 μM. A digest of the protocol:
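Values are percent inhibition of specific [3H]pyrilamine (1.2 nM) binding with compounds at ≤1 μM (1% DMSO vehicle); 180 min incubation at 25 °C, pH 7.4 Tris buffer, on CHO-expressed human H1 receptor; 1 μM pyrilamine defined nonspecific binding, bound ligand counted after filtration.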

The target of assay [2] is human dopamine D2L receptor (Homo sapiens, UniProt P14416). Kind of assay: Dopamine D2L radioligand binding ([3H]Spiperone). The following applies: compound at 1 μM; for Inhibition of ligand binding, Dopamine D2L: 1 µM. The text has this: Non-specific binding was estimated in the presence of […] Haloperidol. Receptor proteins were filtered and washed, the filters were then counted to determine [^3H]Spiperone specifically bound. […] Biochemical assay results are presented as the percent inhibition of specific binding in Table 9.

In assay [3] the target is T1, human recombinant adrenergic α2A receptor (Homo sapiens, UniProt P08913).
T1 construct: expressed in transfected cells; host or cells: insect Sf9 cells
T1 sequence (P08913 1-465): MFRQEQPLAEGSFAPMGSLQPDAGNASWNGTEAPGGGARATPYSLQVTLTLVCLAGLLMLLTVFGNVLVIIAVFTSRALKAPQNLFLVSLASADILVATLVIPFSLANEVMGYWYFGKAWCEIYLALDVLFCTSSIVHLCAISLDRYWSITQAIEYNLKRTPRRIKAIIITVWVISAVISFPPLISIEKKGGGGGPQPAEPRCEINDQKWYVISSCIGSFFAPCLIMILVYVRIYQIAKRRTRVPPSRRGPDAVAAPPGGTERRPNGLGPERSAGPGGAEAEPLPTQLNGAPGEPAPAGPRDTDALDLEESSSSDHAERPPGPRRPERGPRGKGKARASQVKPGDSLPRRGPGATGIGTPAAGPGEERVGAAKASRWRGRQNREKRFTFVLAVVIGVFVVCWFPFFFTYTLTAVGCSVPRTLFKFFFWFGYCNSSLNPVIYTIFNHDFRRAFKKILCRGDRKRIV
Kind of assay: Adrenergic α2A radioligand binding ([3H]MK-912). The following applies: compound at 1 μM. How it is done: To evaluate in radioligand binding assays the activity of compounds of the invention, human recombinant adrenergic α2A receptor expressed in insect Sf9 cells (Uhlen S et al. J Pharmacol Exp Ther. 271:1558, 1994) in a modified Tris-HCl buffer (50 mM Tris-HCl, pH 7.4, 12.5 mM MgCl2, 2 mM EDTA) was used. Compounds of invention were incubated with 1 nM [^3H]MK-912 for 60 min. at 25° C. MK912 is (2S-trans)-1,3,4,5′,6,6′,7,12b-octahydro-1′,3′-dimethyl-spiro[2H-benzofuro[2,3-a]quinolizine-2,4′(1′H)-pyrimidin]-2′(3′H)-one hydrochloride Non-specific binding was estimated in the presence of 10 μM WB-4101 (2-(2,6-Dimethoxyphenoxyethyl)aminomethyl-1,4-benzodioxane hydrochloride). Receptor proteins were filtered and washed, the filters were then counted to determine [^3H]MK-912 specifically bound. Compounds were screened at 1 μM or lower, using 1% DMSO as vehicle. Biochemical assay results are presented as the percent inhibition of specific binding in Table 9.

The target in assay [4] is T2, human recombinant histamine H2 receptor (Homo sapiens, UniProt P25021).
T2 construct: expressed in transfected cells; host or cells: Chinese hamster ovary (CHO) K1 cells
Nature of the assay: Histamine H2 radioligand binding ([125I]Aminopotentidine). The following applies: read-out: Histamine Binding (1 μM) H2, percent inhibition of specific binding, 1 μM. Put shortly:
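Receptor source: human recombinant H2 in CHO-K1 cells, assayed in 50 mM phosphate pH 7.4. Competition against 0.1 nM [125I]aminopotentidine, 120 min, 25 °C; 3 μM tiotidine sets nonspecific binding, filter-bound counts give specific binding.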

For assay [5], the target named is T3, human recombinant adrenergic α2B receptor (Homo sapiens, UniProt P18089).
T3 construct: expressed in transfected cells; host or cells: Chinese hamster ovary (CHO-K1) cells
T3 sequence (P18089 1-450): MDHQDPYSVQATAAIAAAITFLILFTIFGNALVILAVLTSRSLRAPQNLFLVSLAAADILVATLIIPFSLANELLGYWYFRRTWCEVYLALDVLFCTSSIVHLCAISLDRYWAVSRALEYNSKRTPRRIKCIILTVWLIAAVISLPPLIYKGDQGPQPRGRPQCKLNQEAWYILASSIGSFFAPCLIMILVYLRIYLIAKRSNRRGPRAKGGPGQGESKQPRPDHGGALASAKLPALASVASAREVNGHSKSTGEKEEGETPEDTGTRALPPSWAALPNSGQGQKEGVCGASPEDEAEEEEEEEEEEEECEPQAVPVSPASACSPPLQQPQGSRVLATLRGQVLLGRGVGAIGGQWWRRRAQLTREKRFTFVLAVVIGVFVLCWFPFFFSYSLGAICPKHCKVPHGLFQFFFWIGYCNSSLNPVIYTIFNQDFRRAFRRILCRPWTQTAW
Nature of the assay: Adrenergic α2B radioligand binding ([3H]Rauwolscine). To be noted: compound at 1 μM. As for the experimental part:
To evaluate in radioligand binding assays the activity of compounds of the invention, human recombinant adrenergic α2B receptor expressed in Chinese hamster ovary (CHO-K1) cells (Uhlen S et al. Eur J Pharmacol. 343(1):93, 1998) in a modified Tris-HCl buffer (50 mM Tris-HCl, pH 7.4, 12.5 mM MgCl2, 1 mM EDTA, 0.2% BSA) was used. Compounds of the invention were incubated with 2.5 nM [^3H]Rauwolscine for 60 min. at 25° C. Non-specific binding was estimated in the presence of 10 μM Prozosin. Receptor proteins were filtered and washed, the filters were then counted to determine [^3H]Rauwolscine specifically bound. Compounds were screened at 1 μM or lower, using 1% DMSO as vehicle. Biochemical assay results are presented as the percent inhibition of specific binding in Table 9.

Where [6] appears, read: percent inhibition of specific binding, read-out: Inhibition of ligand binding, Dopamine D2L.
The mark [7] stands for this setting: percent inhibition of specific binding, read-out: Inhibition of ligand binding, Adrenergic α2A.
The mark [8] stands for this setting: percent inhibition of specific binding, read-out: Inhibition of ligand binding, Adrenergic α2B.
Where [9] appears, read: percent inhibition of specific binding.

T2 sequence (P25021 whole entry): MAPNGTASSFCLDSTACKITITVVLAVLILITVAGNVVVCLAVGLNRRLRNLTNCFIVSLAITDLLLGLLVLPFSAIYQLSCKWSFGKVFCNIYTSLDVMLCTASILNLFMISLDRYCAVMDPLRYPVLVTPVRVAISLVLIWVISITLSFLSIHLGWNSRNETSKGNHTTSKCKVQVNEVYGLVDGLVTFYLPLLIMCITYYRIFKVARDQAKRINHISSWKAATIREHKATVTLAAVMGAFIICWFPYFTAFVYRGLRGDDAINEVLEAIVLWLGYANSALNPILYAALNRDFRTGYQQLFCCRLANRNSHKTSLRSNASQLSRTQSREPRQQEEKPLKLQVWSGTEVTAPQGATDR
histamine receptor H1, sequence (P35367 whole entry): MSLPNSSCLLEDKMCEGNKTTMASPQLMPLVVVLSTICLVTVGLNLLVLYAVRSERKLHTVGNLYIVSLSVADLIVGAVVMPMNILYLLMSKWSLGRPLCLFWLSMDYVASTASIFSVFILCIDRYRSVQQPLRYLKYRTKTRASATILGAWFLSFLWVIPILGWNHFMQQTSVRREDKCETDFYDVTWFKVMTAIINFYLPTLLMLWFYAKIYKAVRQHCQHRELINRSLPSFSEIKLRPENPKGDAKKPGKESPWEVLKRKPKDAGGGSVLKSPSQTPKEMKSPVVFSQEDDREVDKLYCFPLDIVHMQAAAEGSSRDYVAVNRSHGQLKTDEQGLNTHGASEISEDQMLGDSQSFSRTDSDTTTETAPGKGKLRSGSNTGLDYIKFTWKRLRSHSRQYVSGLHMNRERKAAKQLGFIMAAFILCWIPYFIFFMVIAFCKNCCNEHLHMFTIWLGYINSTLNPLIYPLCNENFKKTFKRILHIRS
human dopamine D2L receptor, sequence (P14416 whole entry): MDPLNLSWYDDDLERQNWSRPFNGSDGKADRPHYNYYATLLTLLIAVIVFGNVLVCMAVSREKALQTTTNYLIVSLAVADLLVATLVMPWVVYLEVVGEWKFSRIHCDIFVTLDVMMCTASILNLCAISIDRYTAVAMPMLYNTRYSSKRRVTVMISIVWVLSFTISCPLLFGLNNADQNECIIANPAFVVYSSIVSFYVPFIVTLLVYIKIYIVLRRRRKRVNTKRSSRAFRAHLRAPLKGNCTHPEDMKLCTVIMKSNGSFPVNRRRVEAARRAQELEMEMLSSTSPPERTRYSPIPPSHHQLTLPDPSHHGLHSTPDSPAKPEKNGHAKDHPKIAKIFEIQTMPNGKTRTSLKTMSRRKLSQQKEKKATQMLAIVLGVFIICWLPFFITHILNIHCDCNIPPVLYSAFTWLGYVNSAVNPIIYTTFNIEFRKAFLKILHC

What is called inhibition is the drop in the measured response relative to a control, in per cent. For `C/C(=C\n1c2c(c3cc(Cl)ccc31)CN(C)CC2)c1ccc(F)cc1` [Compound 83, (E)-8-chloro-5-(2-(4-fluorophenyl)prop-1-enyl)-2,3,4,5-tetrahydro-2-methyl-1H-pyrido[4,3-b]indole], in assay [1], the “Histamine Binding (1 μM) H1, percent inhibition of specific binding” value was 60% and 79% and 84%. Further, the inhibition at 1 µM in assay [2] (setting [6]) is 98%; in assay [3] (setting [7]) it was 98%; in assay [4], 99%; in assay [5] (setting [8]), 121%.
Turning to `Cc1ccc(/C=C/Cn2c3c(c4cc(Cl)ccc42)CN(C)CC3)cn1` [Compound 125, 8-chloro-2,3,4,5-tetrahydro-2-methyl-5-((E)-3-(6-methylpyridin-3-yl)allyl)-1H-pyrido[4,3-b]indole], the inhibition at 1 µM was found to be 96% in assay [1]; 20% in assay [2] (setting [6]); 76% in assay [3] (setting [7]); 48% in assay [4]; 110% in assay [5] (setting [8]).
Regarding `C=C(Cn1c2c(c3cc(Cl)ccc31)CN(C)CC2)c1ccc(F)cc1` [Compound 128, 8-chloro-5-(2-(4-fluorophenyl)allyl)-2,3,4,5-tetrahydro-2-methyl-1H-pyrido[4,3-b]indole], the inhibition at 1 µM in assay [1] came to 98%; in assay [2] (setting [6]), 97%; in assay [3] (setting [7]), 99%; in assay [4], 100%; in assay [5] (setting [8]) it was 120%.
Turning to `C/C(=C\n1c2c(c3cc(Cl)ccc31)CN(C)CC2)c1ccc(C)nc1` [Compound 89, (E)-8-chloro-2,3,4,5-tetrahydro-2-methyl-5-(2-(6-methylpyridin-3-yl)prop-1-enyl)-1H-pyrido[4,3-b]indole], the inhibition at 1 µM in assay [1] was determined as 43%; in assay [2] (setting [6]) it was 68%; in assay [3] (setting [7]), 97%; in assay [4], 91%; in assay [5] (setting [8]), 108%.
In the case of `CCCC/C(=C\n1c2c(c3cc(Cl)ccc31)CN(C)CC2)c1ccc(F)cc1` [Compound 208, (E)-8-chloro-5-(2-(4-fluorophenyl)hex-1-enyl)-2-methyl-2,3,4,5-tetrahydro-1H-pyrido[4,3-b]indole], the inhibition at 1 µM stood at 64% in assay [1]; 78% in assay [2] (setting [6]); 99% in assay [3] (setting [7]); 102% in assay [4]; 103% in assay [5] (setting [8]).
In the case of `C/C(=C/n1c2c(c3cc(Cl)ccc31)CN(C)CC2)c1ccccc1F` [Compound 212, (Z)-8-chloro-5-(2-(2-fluorophenyl)prop-1-enyl)-2-methyl-2,3,4,5-tetrahydro-1H-pyrido[4,3-b]indole], the inhibition at 1 µM in assay [1] is 70%; in assay [2] (setting [6]), 32%; in assay [3] (setting [7]) it was 88%; in assay [4], 84%; in assay [5] (setting [8]) it was 105%.
`COC(=O)c1ccc2c(c1)c1c(n2C#Cc2ccc(F)cc2)CCN(C)C1` [Compound No. 479, methyl 5-((4-fluorophenyl)ethynyl)-2-methyl-2,3,4,5-tetrahydro-1H-pyrido[4,3-b]indole-8-carboxylate]: the inhibition at 1 µM is 11% in assay [1]; 72% in assay [2] ([…] [3H]Spiperone, read-out: Inhibition of ligand binding, Dopamine D2L (percent inhibition of specific binding)); 83% in assay [3] (read-out: Inhibition of ligand binding, Adrenergic α2A (percent inhibition of specific binding)); 51% in assay [4]; 37% in assay [5] ([…] [3H]Rauwolscine, read-out: Inhibition of ligand binding, Adrenergic α2B (percent inhibition of specific binding)).
With `C/C(=C\n1c2c(c3ccccc31)CN(C)CC2)c1ccc(F)cc1` [Compound 205, (E)-5-(2-(4-fluorophenyl)prop-1-enyl)-2-methyl-2,3,4,5-tetrahydro-1H-pyrido[4,3-b]indole], the “Histamine Binding (1 μM) H1, percent inhibition of specific binding” value in assay [1] amounted to 39%. Further, the inhibition at 1 µM is 31% in assay [1]; 98% in assay [2] (setting [6]); 99% in assay [3] (setting [7]); 95% in assay [4]; 101% in assay [5] (setting [8]). In addition, in assay [2] (setting [9]), the “Inhibition of ligand binding, Dopamine D2L” value amounted to 99%.
In the case of `Cc1ccc2c(c1)c1c(n2/C=C(\CC(=O)O)c2ccc(F)cc2)CCN(C)C1` [Compound 209, (E)-4-(2,8-dimethyl-3,4-dihydro-1H-pyrido[4,3-b]indol-5(2H)-yl)-3-(4-fluorophenyl)but-3-enoic acid], the inhibition at 1 µM is 9% in assay [1]; 7% in assay [2] (setting [6]); 30% in assay [3] (setting [7]); 20% in assay [4]; 59% in assay [5] (setting [8]).
On to `Cc1ccc2c(c1)c1c(n2CC(O)c2ccncc2)CCN(C)C1` (stereo not shown) [Compound 180, 2-(2,8-dimethyl-3,4-dihydro-1H-pyrido[4,3-b]indol-5(2H)-yl)-1-(pyridin-4-yl)ethanol], for which the inhibition at 1 µM was determined as 84% in assay [1]; 10% in assay [2] (setting [6]); 84% in assay [3] (setting [7]); 24% in assay [4]; 105% in assay [5] (setting [8]).
As for `CN1CCc2c(c3cc(Cl)ccc3n2/C=C(/c2ccc(F)cc2)C2CC2)C1` [Compound 110, (E)-8-chloro-5-(2-cyclopropyl-2-(4-fluorophenyl)vinyl)-2,3,4,5-tetrahydro-2-methyl-1H-pyrido[4,3-b]indole], the “Histamine Binding (1 μM) H1, percent inhibition of specific binding” value in assay [1] is recorded as 83%. Besides, the inhibition at 1 µM in assay [1] is 77%; in assay [2] (setting [6]) it was 96%; in assay [3] (setting [7]), 99%; in assay [4], 102%; in assay [5] (setting [8]) it was 92%. The “Inhibition of ligand binding, Dopamine D2L” value in assay [2] (setting [9]) worked out at 98%.
Consider `Cc1ccc2c(c1)c1c(n2CC(C)(O)c2cccnc2)CCN(C)C1` (stereo not shown) [Compound 60, 1-(1,2,3,4-tetrahydro-2,8-dimethylpyrido[4,3-b]indol-5-yl)-2-(pyridin-3-yl)propan-2-ol], for which the inhibition at 1 µM in assay [1] was 52%; in assay [2] (setting [6]), 6%; in assay [3] (setting [7]), 81%; in assay [4], 40%; in assay [5] (setting [8]), 96%.

These data come from patent US8906925B2, “Pyrido[4,3-B]indoles containing rigid moieties” (Medivation Technologies, Inc., priority 2008, dated 2014).
